ChEMBL document CHEMBL3396964, “SAH derived potent and selective EZH2 inhibitors” (Bioorg Med Chem Lett, 2015)
Calls of active or inactive are those of the source. The calls are words filed in the database; no cut-off is given here.

How the values were obtained:
[1] = biological target: Histone-lysine N-methyltransferase EZH2 (Homo sapiens, UniProt O75530+Q09028+Q15022+Q15910); test: Inhibition of N-terminally FLAG-tagged wild type EZH2 in EZH2/SUZ12/EED/RbAp48 complex (unknown origin) expressed in baculovirus infected in SF9 cells assessed as inhibition of methylation of nucleosomes at H3K27 by scintillation counting in presence of [3H]SAM
[2] = biological target: Histone-lysine N-methyltransferase EZH2 (Homo sapiens, UniProt O75530+Q09028+Q15022+Q15910, Y641N); test: Inhibition of N-terminally FLAG-tagged EZH2 Y641N mutant in EZH2/SUZ12/EED/RbAp48 complex (unknown origin) expressed in baculovirus infected in SF9 cells assessed as inhibition of methylation of nucleosomes at H3K27 by scintillation counting in presence of [3H]SAM
[3] = biological target: Histone-lysine N-methyltransferase EZH2 (Homo sapiens) (UniProt Q15910); test: Inhibition of EZH2 (unknown origin) at 100 uM by cell-based assay
[4] = biological target: T1, Histone-lysine N-methyltransferase EHMT1 (Homo sapiens, UniProt Q9H9B1); test: Inhibition of EHMT1 (unknown origin) by HMT assay
T1 sequence (Q9H9B1 whole entry): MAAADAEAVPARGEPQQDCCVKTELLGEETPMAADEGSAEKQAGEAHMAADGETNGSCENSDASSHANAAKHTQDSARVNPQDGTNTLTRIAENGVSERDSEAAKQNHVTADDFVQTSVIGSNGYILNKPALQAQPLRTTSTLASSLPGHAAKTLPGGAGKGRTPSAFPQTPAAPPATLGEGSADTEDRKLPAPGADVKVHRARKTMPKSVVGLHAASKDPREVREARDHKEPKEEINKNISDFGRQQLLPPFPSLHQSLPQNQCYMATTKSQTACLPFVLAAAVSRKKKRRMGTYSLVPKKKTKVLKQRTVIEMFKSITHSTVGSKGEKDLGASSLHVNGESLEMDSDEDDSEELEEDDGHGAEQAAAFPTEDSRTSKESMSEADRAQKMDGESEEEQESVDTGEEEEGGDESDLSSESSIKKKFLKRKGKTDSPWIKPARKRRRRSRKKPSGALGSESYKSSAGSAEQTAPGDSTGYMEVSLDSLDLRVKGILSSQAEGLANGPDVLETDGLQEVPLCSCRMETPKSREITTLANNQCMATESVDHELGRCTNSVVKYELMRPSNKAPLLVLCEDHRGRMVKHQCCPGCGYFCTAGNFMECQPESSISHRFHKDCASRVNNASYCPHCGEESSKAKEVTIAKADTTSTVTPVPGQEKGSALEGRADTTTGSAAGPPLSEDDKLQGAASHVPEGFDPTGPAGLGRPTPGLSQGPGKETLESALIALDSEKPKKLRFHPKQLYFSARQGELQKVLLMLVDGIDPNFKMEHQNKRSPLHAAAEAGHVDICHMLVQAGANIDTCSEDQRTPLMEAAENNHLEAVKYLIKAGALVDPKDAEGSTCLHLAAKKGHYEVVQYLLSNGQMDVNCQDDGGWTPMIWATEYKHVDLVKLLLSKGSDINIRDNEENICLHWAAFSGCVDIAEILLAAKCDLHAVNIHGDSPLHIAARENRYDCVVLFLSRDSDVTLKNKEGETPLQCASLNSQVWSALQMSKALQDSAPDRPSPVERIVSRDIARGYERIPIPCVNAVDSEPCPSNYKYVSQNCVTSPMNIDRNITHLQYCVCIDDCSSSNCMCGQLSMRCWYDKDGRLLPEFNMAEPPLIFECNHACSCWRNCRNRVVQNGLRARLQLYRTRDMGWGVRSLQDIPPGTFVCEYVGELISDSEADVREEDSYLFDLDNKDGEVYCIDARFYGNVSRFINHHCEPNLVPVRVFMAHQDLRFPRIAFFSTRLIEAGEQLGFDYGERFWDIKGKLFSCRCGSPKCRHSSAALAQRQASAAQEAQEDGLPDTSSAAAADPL

[5] = biological target: Histone-lysine N-methyltransferase KMT5C (Homo sapiens, UniProt Q86Y97); test: Inhibition of SUV420H2 (unknown origin) by HMT assay
[6] = biological target: N-lysine methyltransferase SMYD2 (Homo sapiens, UniProt Q9NRG4); test: Inhibition of SMYD2 (unknown origin) by HMT assay
[7] = biological target: Histone-lysine N-methyltransferase 2A (Homo sapiens, UniProt Q03164); test: Inhibition of MLL (unknown origin) by HMT assay
[8] = biological target: Histone-lysine N-methyltransferase SETDB1 (Homo sapiens, UniProt Q15047); test: Inhibition of SETDB1 (unknown origin) by HMT assay
[9] = biological target: T2, Histone-lysine N-methyltransferase SETD7 (Homo sapiens, UniProt Q8WTS6); test: Inhibition of SETD7 (unknown origin) by HMT assay
T2 sequence (Q8WTS6 whole entry): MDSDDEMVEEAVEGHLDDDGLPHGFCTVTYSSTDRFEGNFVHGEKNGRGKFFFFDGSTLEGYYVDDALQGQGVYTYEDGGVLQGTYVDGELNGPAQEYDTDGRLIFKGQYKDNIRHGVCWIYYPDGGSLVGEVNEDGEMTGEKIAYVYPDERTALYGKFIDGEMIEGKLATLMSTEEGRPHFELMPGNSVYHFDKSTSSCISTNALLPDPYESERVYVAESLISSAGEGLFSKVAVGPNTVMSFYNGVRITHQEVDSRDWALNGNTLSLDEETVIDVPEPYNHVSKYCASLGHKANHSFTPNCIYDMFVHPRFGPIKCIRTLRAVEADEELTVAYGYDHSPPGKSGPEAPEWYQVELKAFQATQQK

[10] = biological target: Histone-lysine N-methyltransferase SUV39H2 (Homo sapiens, UniProt Q9H5I1); test: Inhibition of SUV39H2 (unknown origin) by HMT assay
Sequence of Histone-lysine N-methyltransferase SUV39H2 (Q9H5I1 whole entry): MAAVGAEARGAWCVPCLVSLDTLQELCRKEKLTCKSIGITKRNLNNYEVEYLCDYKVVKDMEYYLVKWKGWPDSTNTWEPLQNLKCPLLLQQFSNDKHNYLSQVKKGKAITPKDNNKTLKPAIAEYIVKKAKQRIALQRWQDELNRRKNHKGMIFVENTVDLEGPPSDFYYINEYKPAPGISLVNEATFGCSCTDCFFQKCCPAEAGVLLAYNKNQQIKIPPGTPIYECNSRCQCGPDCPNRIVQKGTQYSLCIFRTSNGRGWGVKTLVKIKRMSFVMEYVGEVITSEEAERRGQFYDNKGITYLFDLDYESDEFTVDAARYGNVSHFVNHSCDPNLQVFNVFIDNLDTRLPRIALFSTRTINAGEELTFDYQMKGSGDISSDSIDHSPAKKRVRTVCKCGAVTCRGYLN

Sequence of Histone-lysine N-methyltransferase EZH2 (Homo sapiens, UniProt O75530+Q09028+Q15022+Q15910, Y641N) (Q15910 whole entry Y641N, one chain of several): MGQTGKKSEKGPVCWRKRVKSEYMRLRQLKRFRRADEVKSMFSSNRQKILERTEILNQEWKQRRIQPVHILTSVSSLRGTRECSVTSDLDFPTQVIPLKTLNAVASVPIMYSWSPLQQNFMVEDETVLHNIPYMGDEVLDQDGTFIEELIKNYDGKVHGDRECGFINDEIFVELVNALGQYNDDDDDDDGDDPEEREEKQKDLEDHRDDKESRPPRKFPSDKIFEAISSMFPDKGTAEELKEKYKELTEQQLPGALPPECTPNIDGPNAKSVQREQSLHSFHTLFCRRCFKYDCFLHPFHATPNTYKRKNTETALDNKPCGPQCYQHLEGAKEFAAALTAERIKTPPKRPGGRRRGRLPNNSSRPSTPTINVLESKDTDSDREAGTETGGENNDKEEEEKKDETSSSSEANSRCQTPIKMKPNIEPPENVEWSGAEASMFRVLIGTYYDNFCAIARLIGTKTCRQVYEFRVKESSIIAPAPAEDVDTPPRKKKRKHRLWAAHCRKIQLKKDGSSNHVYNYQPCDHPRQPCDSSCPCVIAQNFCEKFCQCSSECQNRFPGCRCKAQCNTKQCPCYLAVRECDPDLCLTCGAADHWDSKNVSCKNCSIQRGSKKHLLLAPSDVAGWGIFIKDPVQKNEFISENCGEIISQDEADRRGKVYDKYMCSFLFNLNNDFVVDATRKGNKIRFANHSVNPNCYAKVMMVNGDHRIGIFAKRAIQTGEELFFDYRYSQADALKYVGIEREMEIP
Sequence of Histone-lysine N-methyltransferase EZH2 (Homo sapiens, UniProt O75530+Q09028+Q15022+Q15910) (Q15910 whole entry, one chain of several): as the sequence (Q15910 whole entry Y641N, one chain of several) above, with N641Y counted along it
Sequence of Histone-lysine N-methyltransferase KMT5C (Q86Y97 whole entry): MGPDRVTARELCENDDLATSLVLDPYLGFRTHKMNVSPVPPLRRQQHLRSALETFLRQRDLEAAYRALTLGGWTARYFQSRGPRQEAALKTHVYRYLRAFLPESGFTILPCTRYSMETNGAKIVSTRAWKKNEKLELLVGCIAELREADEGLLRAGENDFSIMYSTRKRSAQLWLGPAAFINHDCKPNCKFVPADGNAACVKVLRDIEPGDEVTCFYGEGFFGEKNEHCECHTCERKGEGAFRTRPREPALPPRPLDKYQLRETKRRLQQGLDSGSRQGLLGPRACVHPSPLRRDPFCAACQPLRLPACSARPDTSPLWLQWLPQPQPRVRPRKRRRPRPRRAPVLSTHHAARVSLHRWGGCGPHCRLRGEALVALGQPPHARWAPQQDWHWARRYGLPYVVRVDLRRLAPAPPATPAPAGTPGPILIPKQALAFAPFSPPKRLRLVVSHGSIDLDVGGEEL
Sequence of Histone-lysine N-methyltransferase EZH2 (Homo sapiens) (Q15910 whole entry, looked up): as the sequence (Q15910 whole entry Y641N, one chain of several) above, with N641Y counted along it
Sequence of N-lysine methyltransferase SMYD2 (Q9NRG4 whole entry): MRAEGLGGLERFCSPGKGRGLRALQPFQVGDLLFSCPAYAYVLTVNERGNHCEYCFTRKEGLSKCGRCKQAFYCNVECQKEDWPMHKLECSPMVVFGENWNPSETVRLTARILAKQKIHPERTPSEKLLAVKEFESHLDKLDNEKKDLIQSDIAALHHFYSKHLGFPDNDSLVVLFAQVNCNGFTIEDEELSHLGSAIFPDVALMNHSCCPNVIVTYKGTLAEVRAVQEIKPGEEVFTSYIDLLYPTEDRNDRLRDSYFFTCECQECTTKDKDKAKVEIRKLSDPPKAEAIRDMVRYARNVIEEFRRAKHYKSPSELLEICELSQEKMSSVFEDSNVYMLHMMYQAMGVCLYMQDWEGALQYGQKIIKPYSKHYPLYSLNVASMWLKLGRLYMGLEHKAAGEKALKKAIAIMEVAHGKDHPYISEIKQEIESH

Compound	IC50 [1]	also measured
Cc1ccccc1-n1cc(CNC(=O)[C@@H](N)CCSC[C@H]2O[C@@H](n3cnc4c(N)ncnc43)[C@H](O)[C@@H]2O)cn1	28 µM	–
Nc1ncnc2c1ncn2[C@@H]1O[C@H](CSCC[C@H](N)C(=O)NCc2cnn(-c3ccc(F)cc3)c2)[C@@H](O)[C@H]1O	1.4 µM	IC50 [2]: 0.6 µM
CC(C)(C)c1cc(CNC(=O)[C@@H](N)CCSC[C@H]2O[C@@H](n3cnc4c(N)ncnc43)[C@H](O)[C@@H]2O)n[nH]1	14 µM	IC50 [2]: 3.6 µM
Nc1ncnc2c1ncn2[C@@H]1O[C@H](CSCC[C@H](N)C(=O)O)[C@@H](O)[C@H]1O [S-ADENOSYLHOMOCYSTEINE]	–	inhibition [3]: inactive; IC50 [4]: 0.23 µM; IC50 [5]: 10 µM; IC50 [6]: 0.18 µM; IC50 [7]: 2.3 µM; IC50 [8]: 2.2 µM; IC50 [9]: 30 µM; IC50 [10]: 32 µM
CCCCNC(=O)C(N)CCSC[C@H]1O[C@@H](n2cnc3c(N)ncnc32)[C@H](O)[C@@H]1O (mixture of isomers)	24 µM	–
CCn1cc(CNC(=O)[C@@H](N)CCSC[C@H]2O[C@@H](n3cnc4c(N)ncnc43)[C@H](O)[C@@H]2O)cn1	50 µM	–
Cn1nc(CNC(=O)[C@@H](N)CCSC[C@H]2O[C@@H](n3cnc4c(N)ncnc43)[C@H](O)[C@@H]2O)cc1C1CCC1	40 µM	–
Nc1ncnc2c1ncn2[C@@H]1O[C@H](CSCC[C@H](N)C(=O)NCc2cc3n(n2)CCN(Cc2ccccc2)C3)[C@@H](O)[C@H]1O	8 µM	IC50 [2]: 2.8 µM
Nc1ncnc2c1ncn2[C@@H]1O[C@H](CSCC[C@H](N)C(=O)NCc2ccccc2)[C@@H](O)[C@H]1O	120 µM	–
Nc1ncnc2c1ncn2[C@@H]1O[C@H](CSCC[C@H](N)C(=O)NCc2cc(C3CCC3)[nH]n2)[C@@H](O)[C@H]1O	3 µM	IC50 [2]: 1 µM

Now from value to molecule, other results behind:

IC50 [1]	Compound	also measured
60 µM	Nc1ncnc2c1ncn2[C@@H]1O[C@H](CSCC[C@H](N)C(=O)NCC2CC2)[C@@H](O)[C@H]1O	–
40 µM	Cc1cc(CNC(=O)[C@@H](N)CCSC[C@H]2O[C@@H](n3cnc4c(N)ncnc43)[C@H](O)[C@@H]2O)n(C)n1	–
50 µM	CN1CCn2nc(CNC(=O)[C@@H](N)CCSC[C@H]3O[C@@H](n4cnc5c(N)ncnc54)[C@H](O)[C@@H]3O)cc2C1	–
24 µM	Nc1ncnc2c1ncn2[C@@H]1O[C@H](CSCC[C@H](N)C(=O)NCc2cnn(Cc3ccccc3)c2)[C@@H](O)[C@H]1O	–
19 µM	CCCCNC(=O)[C@@H](N)CCSC[C@H]1O[C@@H](n2cnc3c(N)ncnc32)[C@H](O)[C@@H]1O	–
40 µM	COCc1cc(CNC(=O)[C@@H](N)CCSC[C@H]2O[C@@H](n3cnc4c(N)ncnc43)[C@H](O)[C@@H]2O)n[nH]1	–
